≈ marks a conversion by molar mass, not a printed value. Values belong to the compound of their own block, whether it stands above or below them.
Key:
Assay in all cases: ≥ marks a high value that may be exact or a test limit, other limits are often not marked, values filed in µg/mL are converted to µM
[1] = tested on: Enterococcus faecalis CIP 76.117
[2] = tested on: Escherichia coli ATCC 25922
[3] = tested on: Candida albicans ATCC 90028
[4] = tested on: Acinetobacter baumannii ATCC 19606
[5] = tested on: Pseudomonas aeruginosa ATCC 27853
[6] = tested on: Cryptococcus neoformans ATCC 208821
[7] = tested on: Staphylococcus aureus ATCC 43300
[8] = tested on: Klebsiella pneumoniae ATCC 700603
[9] = tested on: Staphylococcus aureus ATCC 29213
[10] = tested on: Bacillus cereus ATCC 11778
[11] = tested on: Klebsiella aerogenes ATCC 13048
[12] = tested on: Salmonella enterica subsp. enterica serovar Typhimurium ATCC 14028
[13] = tested on: Pseudomonas aeruginosa PAO1
[14] = tested on: Pseudomonas aeruginosa 253
[15] = tested on: Pseudomonas aeruginosa 910
[16] = tested on: Pseudomonas aeruginosa 919
Streptococcus mutans = tested on: Streptococcus mutans
Cryptococcus neoformans = tested on: Cryptococcus neoformans
Streptococcus pneumoniae = tested on: Streptococcus pneumoniae
Salmonella typhimurium = tested on: Salmonella typhimurium
Saccharomyces cerevisiae = tested on: Saccharomyces cerevisiae
Bacillus subtilis = tested on: Bacillus subtilis
Candida albicans = tested on: Candida albicans
Staphylococcus aureus = tested on: Staphylococcus aureus
Escherichia coli = tested on: Escherichia coli
Serratia marcescens = tested on: Serratia marcescens
Pseudomonas putida = tested on: Pseudomonas putida
Escherichia coli BW25113 = tested on: Escherichia coli BW25113
[17] = tested on: Staphylococcus aureus ATCC 25923
[18] = tested on: Pseudomonas aeruginosa H103
[19] = tested on: Salmonella enterica serovar Typhimurium
[20] = tested on: Enterococcus faecalis ATCC 29212
[21] = tested on: Staphylococcus epidermidis
Escherichia coli UB1005 = tested on: Escherichia coli UB1005

SMILES: CC[C@H](C)[C@H](NC(=O)[C@H](CCC(N)=O)NC(=O)[C@@H]1CCCN1C(=O)[C@H](CC(=O)O)NC(=O)[C@H](Cc1ccccc1)NC(=O)[C@@H](NC(=O)[C@H](Cc1cnc[nH]1)NC(=O)[C@H](Cc1cnc[nH]1)NC(=O)[C@H](Cc1ccccc1)NC(=O)[C@@H](N)Cc1ccccc1)[C@@H](C)CC)C(=O)N[C@@H](CCCCN)C(=O)N[C@@H](CO)C(=O)NCC(=O)N[C@@H](CC(C)C)C(=O)N[C@@H](CC(C)C)C(=O)N[C@H](C(=O)N[C@@H](CO)C(=O)N[C@@H](CCSC)C(=O)N[C@@H](Cc1ccc(O)cc1)C(=O)N[C@@H](CC(=O)O)C(=O)O)C(C)C [FFHHIFDPQIKSGLLVSMYD]
- MIC [1]: ≥ 122 µM

SMILES: CC[C@H](C)[C@H](N)C(=O)N[C@@H](CC(C)C)C(=O)NCC(=O)N[C@@H](C)C(=O)N[C@@H](C)C(=O)N[C@@H](Cc1c[nH]c2ccccc12)C(=O)N[C@@H](CC(N)=O)C(=O)NCC(=O)N[C@@H](C)C(=O)N[C@@H](CCCCN)C(=O)N[C@@H](CO)C(=O)N[C@@H](CC(C)C)C(=O)N[C@@H](Cc1ccccc1)C(N)=O [ILGAAWNGAKSLF]
- MIC [2]: > 74.2 µM
- MIC [9]: > 74.2 µM
- MIC [10]: ≥ 74.2 µM
- MIC [11]: ≥ 74.2 µM
- MIC [12]: > 74.2 µM

SMILES: CC[C@H](C)[C@H](N)C(=O)N[C@@H](CC(C)C)C(=O)N[C@@H](CCCCN)C(=O)N[C@@H](Cc1c[nH]c2ccccc12)C(=O)N[C@@H](CCCCN)C(=O)N[C@H](C(=O)N[C@@H](Cc1ccccc1)C(=O)N[C@@H](CCCCN)C(=O)N[C@@H](Cc1c[nH]c2ccccc12)C(=O)N[C@@H](CCCCN)C(=O)N[C@@H](Cc1c[nH]c2ccccc12)C(=O)N[C@@H](Cc1ccccc1)C(=O)N[C@@H](CCCN=C(N)N)C(N)=O)[C@@H](C)CC [ILKWKIFKWKWFR]
- MIC [13]: 2 µM (≈ 3.76 µg/mL)
- MIC [14]: 11.3 µM (≈ 21.3 µg/mL)
- MIC [15]: 4 µM (≈ 7.51 µg/mL)
- MIC [16]: ≥ 32 µM

SMILES: CC[C@H](C)[C@H](NC(=O)[C@@H]1CCCN1C(=O)[C@H](Cc1c[nH]c2ccccc12)NC(=O)[C@H](CCCN=C(N)N)NC(=O)[C@H](Cc1ccccc1)NC(=O)[C@@H](N)CCCN=C(N)N)C(=O)N[C@@H](CCCN=C(N)N)C(=O)N[C@@H](CCCN=C(N)N)C(=O)N[C@@H](CCCN=C(N)N)C(=O)N1CCC[C@H]1C(=O)N[C@H](C(=O)N[C@@H](CCCN=C(N)N)C(=O)N1CCC[C@H]1C(=O)N1CCC[C@H]1C(=O)N[C@@H](Cc1c[nH]c2ccccc12)C(=O)N[C@@H](Cc1ccc(O)cc1)C(=O)N[C@@H](CCCN=C(N)N)C(=O)O)[C@@H](C)CC [RFRWPIRRRPIRPPWYR]
- MIC (Escherichia coli BW25113): 4 µM (≈ 9.64 µg/mL)

SMILES: CC[C@H](C)[C@H](NC(=O)[C@@H]1CCCN1C(=O)[C@@H]1CCCN1C(=O)[C@H](CCCN=C(N)N)NC(=O)[C@H](Cc1c[nH]c2ccccc12)NC(=O)[C@@H](N)CCCN=C(N)N)C(=O)N[C@@H](CCCN=C(N)N)C(=O)N[C@@H](CCCN=C(N)N)C(=O)N1CCC[C@H]1C(=O)N1CCC[C@H]1C(=O)N[C@H](C(=O)N[C@@H](CCCN=C(N)N)C(=O)N1CCC[C@H]1C(=O)N1CCC[C@H]1C(=O)N[C@@H](Cc1ccccc1)C(=O)N[C@@H](Cc1ccc(O)cc1)C(=O)N1CCC[C@H]1C(=O)O)[C@@H](C)CC [RWRPPIRRPPIRPPFYP]
- MIC (Escherichia coli BW25113): 16 µM (≈ 35.2 µg/mL)

SMILES: NC(=O)CC[C@H](NC(=O)[C@H](Cc1cnc[nH]1)NC(=O)[C@H](CO)NC(=O)[C@H](CCCN=C(N)N)NC(=O)[C@H](Cc1ccccc1)NC(=O)[C@H](Cc1cnc[nH]1)NC(=O)[C@H](CCCN=C(N)N)NC(=O)[C@H](Cc1cnc[nH]1)NC(=O)[C@H](Cc1cnc[nH]1)NC(=O)[C@@H](N)CO)C(=O)N[C@@H](CS)C(=O)N[C@@H](CCCN=C(N)N)C(=O)O [SHHRHFRSHQCR]
- MIC [2]: > 20.2 µM
- MIC [3]: 20.2 µM (≈ 32 µg/mL)
- MIC [4]: > 20.2 µM
- MIC [5]: > 20.2 µM
- MIC [6]: 20.2 µM (≈ 32 µg/mL)
- MIC [7]: > 20.2 µM
- MIC [8]: > 20.2 µM

Now from value to compound:

- MIC [2]: > 23.6 µM
- MIC [3]: 23.6 µM (≈ 32 µg/mL)
- MIC [4]: > 23.6 µM
- MIC [5]: > 23.6 µM
- MIC [6]: 23.6 µM (≈ 32 µg/mL)
- MIC [7]: > 23.6 µM
- MIC [8]: > 23.6 µM
SMILES: NCC(=O)N[C@@H](CCCN=C(N)N)C(=O)N[C@@H](CCCN=C(N)N)C(=O)NCC(=O)NCC(=O)N[C@@H](CCCN=C(N)N)C(=O)NCC(=O)NCC(=O)N[C@@H](CCCN=C(N)N)C(=O)NCC(=O)N[C@@H](CCCN=C(N)N)C(=O)NCC(=O)N[C@@H](CCCN=C(N)N)C(=O)O [GRRGGRGGRGRGR]

- MIC (Streptococcus mutans): 24 µM (≈ 32 µg/mL)
- MIC (Cryptococcus neoformans): ≥ 96.2 µM
- MIC (Streptococcus pneumoniae): ≥ 48.1 µM
- MIC (Salmonella typhimurium): 24 µM (≈ 32 µg/mL)
- MIC (Saccharomyces cerevisiae): ≥ 96.2 µM
- MIC (Bacillus subtilis): 24 µM (≈ 32 µg/mL)
- MIC (Candida albicans): 48.1 µM (≈ 64 µg/mL)
- MIC (Staphylococcus aureus): 48.1 µM (≈ 64 µg/mL)
- MIC (Escherichia coli): 24 µM (≈ 32 µg/mL)
- MIC (Serratia marcescens): ≥ 48.1 µM
- MIC (Pseudomonas putida): ≥ 48.1 µM
SMILES: CC(C)C[C@H](NC(=O)[C@H](CC(C)C)NC(=O)[C@H](CCCN=C(N)N)NC(=O)[C@H](Cc1cnc[nH]1)NC(=O)[C@@H](NC(=O)[C@H](CCCN=C(N)N)NC(=O)CNC(=O)[C@@H](NC(=O)[C@@H]1CCCN1)C(C)C)C(C)C)C(=O)N[C@@H](CCCN=C(N)N)C(=O)N[C@@H](CCCCN)C(=O)O [PVGRVHRLLRK]

- MIC [17]: 22.7 µM (≈ 31 µg/mL)
- MIC [13]: 32 µM (≈ 43.7 µg/mL)
- MIC [18]: 22.7 µM (≈ 31 µg/mL)
- MIC [19]: 22.7 µM (≈ 31 µg/mL)
- MIC [20]: 22.7 µM (≈ 31 µg/mL)
- MIC [14]: ≥ 32 µM
- MIC [15]: ≥ 32 µM
- MIC [16]: 16 µM (≈ 21.8 µg/mL)
- MIC [21]: 11.7 µM (≈ 16 µg/mL)
- MIC (Candida albicans): 11.7 µM (≈ 16 µg/mL)
- MIC (Escherichia coli UB1005): 5.86 µM (≈ 7.99 µg/mL)
SMILES: CC[C@H](C)[C@H](NC(=O)[C@H](CCCN=C(N)N)NC(=O)[C@H](C)NC(=O)CNC(=O)[C@@H](N)CCCN=C(N)N)C(=O)N[C@H](C(=O)N[C@H](C(=O)N[C@H](C(=O)N[C@@H](CCCN=C(N)N)C(=O)N[C@H](C(=O)N[C@@H](C)C(=O)N[C@@H](CCCN=C(N)N)C(N)=O)C(C)C)[C@@H](C)CC)C(C)C)C(C)C [RGARIVVIRVAR]

- MIC [17]: 5.31 µM (≈ 8 µg/mL)
- MIC [13]: 16 µM (≈ 24.1 µg/mL)
- MIC [18]: 5.31 µM (≈ 8 µg/mL)
- MIC [19]: 5.31 µM (≈ 8 µg/mL)
- MIC [20]: 5.31 µM (≈ 8 µg/mL)
- MIC [14]: 16 µM (≈ 24.1 µg/mL)
- MIC [15]: ≥ 32 µM
- MIC [16]: 16 µM (≈ 24.1 µg/mL)
- MIC [21]: 1.33 µM (≈ 2 µg/mL)
- MIC (Candida albicans): 10.6 µM (≈ 16 µg/mL)
- MIC (Escherichia coli UB1005): 2.65 µM (≈ 4 µg/mL)
SMILES: CC[C@H](C)[C@H](NC(=O)[C@H](CCCN=C(N)N)NC(=O)[C@H](CCCN=C(N)N)NC(=O)[C@H](CC(C)C)NC(=O)[C@@H](N)CCCN=C(N)N)C(=O)N[C@H](C(=O)N[C@H](C(=O)N[C@H](C(=O)N[C@@H](CCCN=C(N)N)C(=O)N[C@H](C(=O)N[C@@H](C)C(=O)N[C@@H](CCCN=C(N)N)C(=O)O)C(C)C)[C@@H](C)CC)C(C)C)C(C)C [RLRRIVVIRVAR]

Reference: DBAASP
